{"source": "patent US6306828A", "about": "“Enantiomerically-enhanced nutritional energy substrates” (Baxter International, Inc., priority 1995, dated 2001)", "key": {"isolated rat hepatocytes [1]": {"test_system": "isolated rat hepatocytes", "assay": "Gross toxicity, as gauged by hepatocyte viability", "type": "cell-based, male Wistar rats", "settings": "20 mM", "experimental": "(§1) Assay of Bioavailability and Gross Toxicity of Trilactyl Glycerate in Isolate Rat Hepatocytes\n(§2) In the following experiment, male Wistar rats (200-250 g) fasted for 24 hours were used. Hepatocytes were isolated according to the method of Berry and Friend (1969) as modified by Groen et al. (1982).\n(§3) The isolated hepatocytes were incubated as follows:\nHepatocytes (final concentration=10 mg dry cell/ml) were incubated in closed vials at 37° C. in a shaking water bath (60 strokes/min) for 30 minutes in 2.5 ml Krebs-bicarbonate buffer (NaCl: 120 mmol/L, KCl: 4.8 mmol/L, KH2 PO4 : 1.2 mmol/L, MgSO4 : 1.2 mmol/L, NaCO3 H: 24 mmol/L, Ca^2+ :2.4 mmol/L, pH 7.4) containing Bovine Serum Albumin (BSA)-oleate (2%-2 mmol/L), trilactyl glycerate or glucose octanoate (20 mM) The gas atmosphere was O2 /CO2 (19:1). After 30 minutes, 0.35 ml samples of the cell suspension were taken and quenched with perchloric acid (HCIO4, final concentration 5% (w/v)), then centrifuged at 13,500 g for 5 minutes. The supernatant was neutralized with KOH (2 M) and Mops (0.3 M) for subsequent determination of metabolites. 0.5 ml aliquots of the cell suspension were centrifuged at 13,500 g for 15 seconds. The pellet was frozen in liquid nitrogen and stored at -80° C. to subsequently measure pyruvate kinase activity."}, "isolated rat hepatocytes [2]": {"test_system": "isolated rat hepatocytes", "assay": "Bioavailability/metabolism in isolated rat hepatocytes (production of metabolic intermediates)", "type": "cell-based, male Wistar rats", "settings": "20 mM; for Glucose production / Ketone Bodies production / Pyruvate-Lactate production: 37° C.", "experimental": "as §1, §2, §3\n[…] […] The supernatant was neutralized with KOH (2 M) and Mops (0.3 M) for subsequent determination of metabolites. 0.5 ml aliquots of the cell suspension were centrifuged at 13,500 g for 15 seconds. The pellet was frozen in liquid nitrogen and stored at -80° C. to subsequently measure pyruvate kinase activity."}, "macrophage cultures": {"test_system": "macrophage cultures", "settings": "high lactate concentration; Jensen et al. 1986; cited from earlier work"}, "[3]": {"test_system": "cerebral metabolism / brain function during hypoglycemia", "settings": "cited from earlier work"}, "skeletal muscle": {"test_system": "skeletal muscle", "settings": "Hermanson et al. 1972; cited from earlier work"}}, "data": [{"smiles": "CC(O)C(=O)OCC(COC(=O)C(C)O)OC(=O)C(C)O", "note": "(single isomer, unassigned) [trilactyl glycerate]", "values": [{"measurement": "gross toxicity, as gauged by hepatocyte viability", "setting": "isolated rat hepatocytes [1]", "result": "No evidence of gross toxicity"}, {"measurement": "Glucose production", "setting": "isolated rat hepatocytes [2]; 0 Mins.", "result": 0.006}, {"measurement": "Ketone Bodies production", "setting": "isolated rat hepatocytes [2]; 0 Mins.", "result": 0.010}, {"measurement": "Pyruvate-Lactate production", "setting": "isolated rat hepatocytes [2]; 0 Mins.", "result": 0.012}, {"measurement": "bioavailability and metabolic conversion", "setting": "isolated rat hepatocytes [2]", "result": "demonstrate the bioavailability of trilactyl glycerate and its interconversion to glucose"}, {"measurement": "Glucose production", "setting": "isolated rat hepatocytes [2]; 15 Mins.", "result": 0.027}, {"measurement": "Ketone Bodies production", "setting": "isolated rat hepatocytes [2]; 15 Mins.", "result": 0.12}, {"measurement": "Pyruvate-Lactate production", "setting": "isolated rat hepatocytes [2]; 15 Mins.", "result": 0.38}, {"measurement": "Glucose production", "setting": "isolated rat hepatocytes [2]; 30 Mins.", "result": 0.062}, {"measurement": "Ketone Bodies production", "setting": "isolated rat hepatocytes [2]; 30 Mins.", "result": 0.15}, {"measurement": "Pyruvate-Lactate production", "setting": "isolated rat hepatocytes [2]; 30 Mins.", "result": 0.42}, {"measurement": "Glucose production", "setting": "isolated rat hepatocytes [2]; 45 Mins.", "result": 0.178}, {"measurement": "Ketone Bodies production", "setting": "isolated rat hepatocytes [2]; 45 Mins.", "result": 0.11}, {"measurement": "Pyruvate-Lactate production", "setting": "isolated rat hepatocytes [2]; 45 Mins.", "result": 0.45}, {"measurement": "Glucose production", "setting": "isolated rat hepatocytes [2]; 60 Mins.", "result": 0.189}, {"measurement": "Ketone Bodies production", "setting": "isolated rat hepatocytes [2]; 60 Mins.", "result": 0.13}, {"measurement": "Pyruvate-Lactate production", "setting": "isolated rat hepatocytes [2]; 60 Mins.", "result": 0.43}]}, {"smiles": "CCCCCCCC(=O)OC1O[C@H](CO)[C@@H](O)[C@H](O)[C@H]1O", "note": "(stereo partly drawn) [glucose octanoate, α,β-D-Glucopyranosyl octanoate]", "values": [{"measurement": "bioavailability and metabolic conversion", "setting": "isolated rat hepatocytes [2]", "result": "demonstrate the bioavailability of the substrate and its utility as a keptone precursor"}]}, {"smiles": "CC(O)C(=O)O", "note": "(stereo not shown) [lactate]", "values": [{"measurement": "secretion of angiogenesis factors", "setting": "macrophage cultures", "result": "encouraged macrophage cultures to secrete angiogenesis factors"}, {"measurement": "support of cerebral glucose metabolism and cognitive functions during hypoglycemia", "setting": "[3]; Amiel 1994", "result": "able to support cerebral glucose metabolism and maintain cognitive functions during hypoglycemia"}, {"measurement": "protection of brain function during hypoglycemia", "setting": "[3]; Maran et al. 1994", "result": "protective of brain function during hypoglycemia"}, {"measurement": "metabolism of blood lactate by skeletal muscle", "setting": "skeletal muscle", "result": "metabolized by skeletal muscle in significant quantities"}]}]}
